In patent US20240382629A1, “HETEROBIVALENT AND HOMOBIVALENT AGENTS TARGETING FIBROBLAST ACTIVATION PROTEIN ALPHA AND/OR PROSTATE-SPECIFIC MEMBRANE ANTIGEN” (The Johns Hopkins University, priority 2021, published 2024):
Like-named read-outs stand apart in the source and are kept apart here.

What was measured:
Type in all cases: biochemical
FAP = FAP (Homo sapiens (Human), UniProt Q12884); test: FAP inhibition assay (recombinant enzyme, Z-Gly-Pro-AMC substrate); details: Table 3; for Ki: read-out: FAP Ki
Chain of FAP (Q12884 whole entry): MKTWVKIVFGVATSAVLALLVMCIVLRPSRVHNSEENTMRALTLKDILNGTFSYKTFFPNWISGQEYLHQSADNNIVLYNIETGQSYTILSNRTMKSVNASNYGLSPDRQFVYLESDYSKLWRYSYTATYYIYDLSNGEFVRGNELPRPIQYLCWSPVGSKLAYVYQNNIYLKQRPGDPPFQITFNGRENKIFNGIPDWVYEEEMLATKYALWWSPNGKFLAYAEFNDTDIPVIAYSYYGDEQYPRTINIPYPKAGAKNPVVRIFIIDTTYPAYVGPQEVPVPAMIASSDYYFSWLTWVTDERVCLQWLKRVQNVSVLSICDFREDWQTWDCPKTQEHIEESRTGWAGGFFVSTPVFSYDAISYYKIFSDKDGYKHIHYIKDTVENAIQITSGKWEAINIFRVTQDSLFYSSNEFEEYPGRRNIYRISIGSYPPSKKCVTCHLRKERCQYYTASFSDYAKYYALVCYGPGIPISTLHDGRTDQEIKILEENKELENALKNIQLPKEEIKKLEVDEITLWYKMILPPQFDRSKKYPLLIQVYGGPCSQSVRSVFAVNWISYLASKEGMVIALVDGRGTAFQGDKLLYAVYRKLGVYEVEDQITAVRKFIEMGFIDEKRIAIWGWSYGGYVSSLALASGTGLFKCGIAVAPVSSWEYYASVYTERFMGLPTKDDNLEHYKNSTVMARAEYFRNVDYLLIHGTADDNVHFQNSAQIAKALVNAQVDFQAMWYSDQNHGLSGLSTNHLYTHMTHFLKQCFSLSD
Experimental: (§1) PSMA binding affinities of the compounds were determined using a competitive inhibition assay as previously reported. […] FAP, prolyl endopeptidase (PREP), and […] (DPPIV) inhibition assays: Recombinant enzymes (FAP, PREP, DPPIV) were purchased from R&D Systems (Minneapolis, MN). […] Z-Gly-Pro-AMC was used as a substrate for FAP and PREP. H-Gly-Pro-AMC was used as a substrate for DPPIV. The recombinant enzyme (0.4 μg/mL) was incubated with varying amounts of the test articles in the presence of the designated substrate (80 μM) for 10 min at room temperature. Fluorescence intensity was measured with 380 nm excitation and 460 nm emission using the Cytation 5 Cell Imaging Multi-Mode Reader (BioTek, Winooski, VT). IC50 and Ki values were obtained using a sigmoidal dose-response function.

PREP = PREP (Homo sapiens (Human), UniProt P48147); test: PREP inhibition assay (recombinant enzyme, Z-Gly-Pro-AMC substrate); details: Table 3
Chain of PREP (P48147 whole entry): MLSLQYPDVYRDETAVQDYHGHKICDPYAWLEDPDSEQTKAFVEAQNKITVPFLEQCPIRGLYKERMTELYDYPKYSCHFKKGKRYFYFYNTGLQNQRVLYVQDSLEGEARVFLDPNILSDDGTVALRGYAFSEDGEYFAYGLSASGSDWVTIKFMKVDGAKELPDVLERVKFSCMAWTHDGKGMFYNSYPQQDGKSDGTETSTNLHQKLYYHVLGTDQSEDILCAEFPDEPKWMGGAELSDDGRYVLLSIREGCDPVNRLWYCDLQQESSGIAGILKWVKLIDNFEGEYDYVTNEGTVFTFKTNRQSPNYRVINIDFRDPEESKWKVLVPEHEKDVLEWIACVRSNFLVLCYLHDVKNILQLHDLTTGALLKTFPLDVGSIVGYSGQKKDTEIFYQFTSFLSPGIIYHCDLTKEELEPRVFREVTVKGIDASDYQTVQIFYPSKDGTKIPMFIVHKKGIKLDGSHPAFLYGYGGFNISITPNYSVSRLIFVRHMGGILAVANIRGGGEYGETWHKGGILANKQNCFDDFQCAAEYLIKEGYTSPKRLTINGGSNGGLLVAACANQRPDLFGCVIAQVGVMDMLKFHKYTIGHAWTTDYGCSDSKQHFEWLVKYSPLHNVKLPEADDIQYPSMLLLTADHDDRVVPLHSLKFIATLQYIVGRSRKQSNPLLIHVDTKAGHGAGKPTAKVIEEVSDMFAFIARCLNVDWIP
Experimental: as §1

DPPIV = DPPIV (Homo sapiens (Human), UniProt P27487); test: DPPIV inhibition assay (recombinant enzyme, H-Gly-Pro-AMC substrate)
Chain of DPPIV (P27487 whole entry): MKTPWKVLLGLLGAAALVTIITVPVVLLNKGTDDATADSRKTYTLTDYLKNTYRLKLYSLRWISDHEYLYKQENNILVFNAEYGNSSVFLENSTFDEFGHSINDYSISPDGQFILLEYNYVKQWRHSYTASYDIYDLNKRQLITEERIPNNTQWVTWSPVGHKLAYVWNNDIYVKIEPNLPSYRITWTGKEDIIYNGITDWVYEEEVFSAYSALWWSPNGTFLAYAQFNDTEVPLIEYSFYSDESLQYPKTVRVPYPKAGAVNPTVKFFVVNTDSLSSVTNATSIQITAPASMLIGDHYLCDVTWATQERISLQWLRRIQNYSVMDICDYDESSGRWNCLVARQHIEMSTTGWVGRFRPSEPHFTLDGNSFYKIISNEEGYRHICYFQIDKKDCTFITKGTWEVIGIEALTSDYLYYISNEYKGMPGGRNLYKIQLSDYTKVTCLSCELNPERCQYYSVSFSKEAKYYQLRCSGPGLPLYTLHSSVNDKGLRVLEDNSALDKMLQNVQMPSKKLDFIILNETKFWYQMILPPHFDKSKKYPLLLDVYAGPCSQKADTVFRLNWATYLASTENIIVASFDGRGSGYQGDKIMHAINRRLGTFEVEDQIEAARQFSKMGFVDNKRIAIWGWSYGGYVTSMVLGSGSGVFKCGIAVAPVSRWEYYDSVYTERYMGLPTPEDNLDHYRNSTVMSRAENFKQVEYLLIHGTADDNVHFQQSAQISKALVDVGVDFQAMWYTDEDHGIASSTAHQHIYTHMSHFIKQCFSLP
Experimental: as §1

SMILES | IC50 (FAP) | Ki (FAP) | IC50 (DPPIV; Table 3, read-out: DPPIV IC50) | IC50 (PREP) | IC50 (DPPIV)
N#C[C@@H]1CCCN1C(=O)CNC(=O)c1ccnc2ccc(OCCF)cc12 [JHU1220470] | 0.343 nM | 0.0686 nM | – | 1410 nM | > 20000 nM
N#C[C@@H]1CCCN1C(=O)CNC(=O)c1ccnc2ccc(OCCCNC(=O)CCOCCOCCOCCOCCNC(=O)[C@H](CCCCNC(=O)c3ccc(F)nc3)NC(=O)CN3CCN(CC(=O)O)CCN(CC(=O)O)CCN(CC(=O)O)CC3)cc12 [JHU1221823] | 0.59 nM | 0.12 nM | 7470 nM | 240 nM | –
N#C[C@@H]1CCCN1C(=O)CNC(=O)c1ccnc2ccc(OCCCNC(=O)CCc3cn(CCCC[C@H](NC(=O)c4ccc(F)nc4)C(=O)NCCNC(=O)CCC(C(=O)O)N4CCN(CC(=O)O)CCN(CC(=O)O)CCN(CC(=O)O)CC4)nn3)cc12 (stereo partly drawn) [SB-FAP-11, 2,2′,2″-(10-(1-Carboxy-4-((2-((S)-6-(4-(3-((3-((4-((2-((S)-2-cyanopyrrolidin-1-yl)-2-oxoethyl)carbamoyl)quinolin-6-yl)oxy)propyl)amino)-3-oxopropyl)-1H-1,2,3-triazol-1-yl)-2-(6-fluoronicotinamido)hexanamido)ethyl)amino)-4-oxobutyl)-1,4,7,10-tetraazacyclododecane-1,4,7-triyl)triacetic acid] | 0.35 nM | 0.07 nM | 9480 nM | 510 nM | –

The next lines start with results.

IC50 (FAP) | Ki (FAP) | IC50 (DPPIV; Table 3, read-out: DPPIV IC50) | SMILES | IC50 (PREP) | IC50 (DPPIV)
0.31 nM | 0.062 nM | 3500 nM | N#C[C@@H]1CC(F)(F)CN1C(=O)CNC(=O)c1ccnc2ccc(F)cc12 [JHU1220466] | 47 nM | –
1.31 nM | 0.26 nM | 17700 nM | N#C[C@@H]1CCCN1C(=O)CNC(=O)c1ccnc2ccc(OCCCNC(=O)[C@@H](CC(=O)O)NC(=O)[C@@H](CC(=O)O)NC(=O)c3ccc(F)nc3)cc12 [JHU1221785] | 86600 nM | –
0.119 nM | 0.0239 nM | > 20000 nM | N#C[C@@H]1CCCN1C(=O)CNC(=O)c1ccnc2ccc(F)cc12 [JHU1220450] | – | –
2.09 nM | 0.42 nM | 12600 nM | N#C[C@@H]1CCCN1C(=O)CNC(=O)c1ccnc2ccc(OCCCN(Cc3ccc(F)nc3)C(=O)CN3CCN(CC(=O)O)CCN(CC(=O)O)CCN(CC(=O)O)CC3)cc12 [JHU1221709] | 22000 nM | –
